In ChEMBL document CHEMBL4699480 (J Med Chem, 2020):
Active and inactive are the calls of the source. The rule behind the calls is not given here.

Tests used:
[1] = Cytotoxicity in mouse L1210 cells assessed as reduction in cell viability incubated for 72 hrs by MTT assay; details: L1210, 72 h
[2] = test system: CAPAN-1; experiment: Cytotoxicity in human CAPAN-1 cells assessed as reduction in cell viability incubated for 72 hrs by MTT assay; type: functional, cell-based; details: CAPAN-1, 72 h
[3] = Inhibition of Escherichia coli WecA incubated for 2 hrs using UDP-Glucosamine-C6-FITC substrate by reversed-phase HPLC analysis; design: species or system Escherichia coli BL21
[4] = test system: Vero; experiment: Cytotoxicity in African green monkey Vero cells assessed as reduction in cell viability incubated for 72 hrs by MTT assay; type: cell-based; details: Chlorocebus sabaeus
[5] = target: T1, UDP-N-acetylglucosamine--dolichyl-phosphate N-acetylglucosaminephosphotransferase (Homo sapiens, UniProt Q9H3H5); experiment: Inhibition of human DPAGT1 expressed in HEK293 (Expi293) cells incubated for 2 hrs using UDP-GlcN-Cg-FITC and alpha-dihydroundecap-renyl phosphate by reversed-phase HPLC analysis; type: cell-based
T1 sequence (Q9H3H5 whole entry): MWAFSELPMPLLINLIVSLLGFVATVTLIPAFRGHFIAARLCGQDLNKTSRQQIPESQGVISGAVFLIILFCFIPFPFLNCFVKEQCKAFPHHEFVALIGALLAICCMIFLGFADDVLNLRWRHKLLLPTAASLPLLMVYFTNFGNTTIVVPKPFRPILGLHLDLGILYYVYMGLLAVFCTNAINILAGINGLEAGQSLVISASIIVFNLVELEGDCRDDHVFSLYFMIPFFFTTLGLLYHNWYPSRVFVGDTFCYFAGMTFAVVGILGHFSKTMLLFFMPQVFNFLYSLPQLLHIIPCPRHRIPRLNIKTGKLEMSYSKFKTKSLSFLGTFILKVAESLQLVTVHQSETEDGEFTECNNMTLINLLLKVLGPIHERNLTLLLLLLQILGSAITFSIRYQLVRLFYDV

[6] = test system: PANC-1; experiment: Cytotoxicity in human PANC-1 cells assessed as reduction in cell viability incubated for 72 hrs by MTT assay; type: functional, cell-based; details: PANC-1, 72 h
[7] = Inhibition of N-terminal 6x-His-tagged Hydrogenivirga-sp. 128-5-R1-1 MraY expressed in Escherichia coli NiCo21(DE3) incubated for 2 hrs by reversed-phase HPLC analysis
[8] = test system: HCT-116; experiment: Cytotoxicity in human HCT-116 cells assessed as reduction in cell viability incubated for 72 hrs by MTT assay; type: functional, cell-based; details: HCT-116, 72 h
[9] = test system: KB; experiment: Cytotoxicity in human KB cells assessed as reduction in cell viability incubated for 72 hrs by MTT assay; type: functional, cell-based
[10] = test system: DLD-1; experiment: Cytotoxicity in human DLD-1 cells assessed as reduction in cell viability incubated for 72 hrs by MTT assay; type: functional, cell-based; details: DLD-1, 72 h
[11] = test system: ASPC1; experiment: Cytotoxicity in human ASPC1 cells assessed as reduction in cell viability incubated for 72 hrs by MTT assay; type: functional, cell-based; details: ASPC1, 72 h
[12] = Inhibition of N-terminal His9-tagged Methanocaldococcus jannaschii DSM 2661 AglH incubated for 2 hrs using UDP-GlcN-Cg-FITC and alpha-dihydroundecap-renyl phosphate by reversed-phase HPLC analysis
[13] = test system: SiHa; experiment: Cytotoxicity in human SiHa cells assessed as reduction in cell viability incubated for 72 hrs by MTT assay; type: functional, cell-based
[14] = Cytotoxicity in human hTERT-HPNE cells assessed as reduction in cell viability incubated for 72 hrs by MTT assay; type: cell-based
[15] = Cytotoxicity in human PD002 cells assessed as reduction in cell viability incubated for 72 hrs by MTT assay; type: functional, cell-based; details: PD002, 72 h
[16] = Inhibition of Mycobacterium tuberculosis WecA
[17] = Inhibition of Mycobacterium tuberculosis WecA by fluorescence based assay
[18] = test system: PD002; experiment: Inhibition of cell migration in human PD002 cells at 0.1 uM incubated for 0.5 hrs by crystal violet staining based Boyden chamber assay; type: functional

Compound | IC50 [3] [µM] | IC50 [5] [µM] | IC50 [7] [µM] | IC50 [12] [µM] | further results
CO[C@H]1[C@@H](O)[C@H](n2ccc(=O)[nH]c2=O)O[C@@H]1[C@@H](O[C@H]1OC(C(=O)N[C@H]2CCCCNC2=O)=C[C@H](O)[C@@H]1O)C(N)=O [CAPURAMYCIN] | > 50 | > 50 | 0.13 | > 50 | IC50 [1]: > 50 µM; IC50 [2]: > 50 µM; IC50 [4]: > 50 µM; IC50 [6]: > 50 µM; IC50 [8]: > 50 µM; IC50 [9]: > 50 µM; IC50 [10]: > 50 µM; IC50 [11]: > 50 µM; IC50 [13]: > 50 µM; IC50 [14]: > 50 µM; IC50 [15]: > 50 µM
CO[C@@H]1[C@H](O)[C@@H]([C@@H](O[C@H]2OC(C(=O)NCc3ccc(N4CCC(Oc5ccc(OC(F)(F)F)cc5)CC4)cc3)=C[C@H](O)[C@@H]2O)C(N)=O)O[C@H]1n1ccc(=O)[nH]c1=O | 20 | – | > 50 | 15 | IC50 [1]: > 50 µM; IC50 [2]: 40 µM; IC50 [4]: > 50 µM; IC50 [6]: 45 µM; IC50 [8]: 25 µM; IC50 [9]: 35 µM; IC50 [10]: 35 µM; IC50 [11]: 30 µM; IC50 [13]: 25 µM; IC50 [14]: > 50 µM; IC50 [15]: 50 µM
NC(=O)[C@H](O[C@H]1OC(C(=O)NCc2ccc(N3CCC(Oc4ccc(OC(F)(F)F)cc4)CC3)cc2)=C[C@H](O)[C@@H]1O)[C@H]1O[C@@H](n2ccc(=O)[nH]c2=O)[C@H](O)[C@@H]1O | 30 | > 50 | > 50 | > 50 | –
CO[C@H]1[C@@H](O)[C@H](n2ccc(=O)[nH]c2=O)O[C@@H]1[C@@H](O[C@H]1OC(CNCc2ccc(N3CCC(Oc4ccc(OC(F)(F)F)cc4)CC3)cc2)=C[C@H](O)[C@@H]1O)C(N)=O | > 50 | > 50 | > 50 | > 50 | –
CCCCc1ccc(NC(=O)C2=CCN(C)[C@@H]([C@H](O[C@@H]3O[C@H](CN)[C@@H](O)[C@H]3O)[C@H]3O[C@@H](n4ccc(=O)[nH]c4=O)[C@H](O)[C@@H]3O)C(=O)N2C)cc1 | – | – | – | – | IC50 [16]: 0.084 µM
CO[C@@H]1[C@H](O)[C@@H]([C@@H](O[C@H]2OC(CNCc3ccc(N4CCC(Oc5ccc(OC(F)(F)F)cc5)CC4)cc3)=C[C@H](O)[C@@H]2O)C(N)=O)O[C@H]1n1ccc(=O)[nH]c1=O | > 50 | > 50 | > 50 | > 50 | –
CO[C@H]1[C@@H](OC)[C@H](n2ccc(=O)[nH]c2=O)O[C@@H]1[C@@H](O[C@H]1OC(C(=O)N[C@H]2CCCCNC2=O)=C[C@H](O)[C@@H]1O)C(N)=O | 0.06 | 4.5 | > 50 | 2.5 | IC50 [1]: > 50 µM; IC50 [2]: > 50 µM; IC50 [4]: > 50 µM; IC50 [6]: > 50 µM; IC50 [8]: > 50 µM; IC50 [9]: > 50 µM; IC50 [10]: > 50 µM; IC50 [11]: > 50 µM; IC50 [13]: > 50 µM; IC50 [17]: 0.06 µM; IC50 [14]: > 50 µM; IC50 [15]: > 50 µM
NC[C@H]1O[C@@H](O[C@H]([C@H]2O[C@@H](n3ccc(=O)[nH]c3=O)[C@H](O)[C@@H]2O)[C@H](NCCCC(=O)NCc2ccc(N3CCC(Oc4ccc(OC(F)(F)F)cc4)CC3)cc2)C(N)=O)[C@H](O)[C@@H]1O | 0.01 | 0.01 | 0.01 | 0.01 | –
CO[C@@H]1[C@H](O)[C@@H]([C@@H](O[C@H]2OC(C(=O)N[C@H]3CCCCNC3=O)=C[C@H](O)[C@@H]2O)C(N)=O)O[C@H]1n1ccc(=O)[nH]c1=O | 30 | 11.5 | 8.5 | 20 | –
Nc1ccn([C@@H]2O[C@H](CO)[C@@H](O)C2(F)F)c(=O)n1 | – | – | – | – | inhibition [18]: Active
CO[C@H]1[C@@H](OC)[C@H](n2ccc(=O)[nH]c2=O)O[C@@H]1[C@@H](O[C@H]1OC(C(=O)NCc2ccc(N3CCC(Oc4ccc(OC(F)(F)F)cc4)CC3)cc2)=C[C@H](O)[C@@H]1O)C(N)=O | 10 | 20 | 5 | 30 | –
NC(=O)[C@H](O[C@H]1OC(C(=O)N[C@H]2CCCCNC2=O)=C[C@H](O)[C@@H]1O)[C@H]1O[C@@H](n2ccc(=O)[nH]c2=O)[C@H](O)[C@@H]1O | 35 | > 50 | > 50 | > 50 | –
